Assay results: US12187742B2 (XRAD Therapeutics, Inc., priority 2018, dated 2025)
Structures can show the parent of a compound that is named as a salt.

Legend:
ATM = ATM (Homo sapiens (Human), UniProt Q13315); experiment: ATM in Cell Western Assay (pKAP1 in etoposide-treated MCF-7 cells); type: cell-based
Outline: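 After paraformaldehyde fixation and Triton X-100 permeabilization, immunostained plates were read by infrared scanning (ODYSSEY CLx). Compound was given as 10 doses, 3-fold dilutions from a 1 μM final top concentration.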

DNA-PK = DNA-PK (Homo sapiens (Human), UniProt P78527); experiment: DNA-PK Enzyme-Linked Immunosorbent Assay (phosphorylation of GST-p53 (1-101) peptide); type: biochemical; settings: ELISA
Outline: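 Inhibition measured by 450 nm absorbance after HRP/TMB detection of phospho-Ser15 on immobilized GST-p53 (1-101). The kinase reaction used 0.1 μg/mL DNA-PK and 20 μM ATP, 1 h at 25 °C. Ten 3-fold compound dilutions, top final concentration 100 nM.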

[1] = MCF-7 cells, etoposide 100 μM, 1 hr, pKAP1 readout
[2] = pKAP1 in etoposide-treated MCF-7 cells

ATM, sequence (Q13315 whole entry): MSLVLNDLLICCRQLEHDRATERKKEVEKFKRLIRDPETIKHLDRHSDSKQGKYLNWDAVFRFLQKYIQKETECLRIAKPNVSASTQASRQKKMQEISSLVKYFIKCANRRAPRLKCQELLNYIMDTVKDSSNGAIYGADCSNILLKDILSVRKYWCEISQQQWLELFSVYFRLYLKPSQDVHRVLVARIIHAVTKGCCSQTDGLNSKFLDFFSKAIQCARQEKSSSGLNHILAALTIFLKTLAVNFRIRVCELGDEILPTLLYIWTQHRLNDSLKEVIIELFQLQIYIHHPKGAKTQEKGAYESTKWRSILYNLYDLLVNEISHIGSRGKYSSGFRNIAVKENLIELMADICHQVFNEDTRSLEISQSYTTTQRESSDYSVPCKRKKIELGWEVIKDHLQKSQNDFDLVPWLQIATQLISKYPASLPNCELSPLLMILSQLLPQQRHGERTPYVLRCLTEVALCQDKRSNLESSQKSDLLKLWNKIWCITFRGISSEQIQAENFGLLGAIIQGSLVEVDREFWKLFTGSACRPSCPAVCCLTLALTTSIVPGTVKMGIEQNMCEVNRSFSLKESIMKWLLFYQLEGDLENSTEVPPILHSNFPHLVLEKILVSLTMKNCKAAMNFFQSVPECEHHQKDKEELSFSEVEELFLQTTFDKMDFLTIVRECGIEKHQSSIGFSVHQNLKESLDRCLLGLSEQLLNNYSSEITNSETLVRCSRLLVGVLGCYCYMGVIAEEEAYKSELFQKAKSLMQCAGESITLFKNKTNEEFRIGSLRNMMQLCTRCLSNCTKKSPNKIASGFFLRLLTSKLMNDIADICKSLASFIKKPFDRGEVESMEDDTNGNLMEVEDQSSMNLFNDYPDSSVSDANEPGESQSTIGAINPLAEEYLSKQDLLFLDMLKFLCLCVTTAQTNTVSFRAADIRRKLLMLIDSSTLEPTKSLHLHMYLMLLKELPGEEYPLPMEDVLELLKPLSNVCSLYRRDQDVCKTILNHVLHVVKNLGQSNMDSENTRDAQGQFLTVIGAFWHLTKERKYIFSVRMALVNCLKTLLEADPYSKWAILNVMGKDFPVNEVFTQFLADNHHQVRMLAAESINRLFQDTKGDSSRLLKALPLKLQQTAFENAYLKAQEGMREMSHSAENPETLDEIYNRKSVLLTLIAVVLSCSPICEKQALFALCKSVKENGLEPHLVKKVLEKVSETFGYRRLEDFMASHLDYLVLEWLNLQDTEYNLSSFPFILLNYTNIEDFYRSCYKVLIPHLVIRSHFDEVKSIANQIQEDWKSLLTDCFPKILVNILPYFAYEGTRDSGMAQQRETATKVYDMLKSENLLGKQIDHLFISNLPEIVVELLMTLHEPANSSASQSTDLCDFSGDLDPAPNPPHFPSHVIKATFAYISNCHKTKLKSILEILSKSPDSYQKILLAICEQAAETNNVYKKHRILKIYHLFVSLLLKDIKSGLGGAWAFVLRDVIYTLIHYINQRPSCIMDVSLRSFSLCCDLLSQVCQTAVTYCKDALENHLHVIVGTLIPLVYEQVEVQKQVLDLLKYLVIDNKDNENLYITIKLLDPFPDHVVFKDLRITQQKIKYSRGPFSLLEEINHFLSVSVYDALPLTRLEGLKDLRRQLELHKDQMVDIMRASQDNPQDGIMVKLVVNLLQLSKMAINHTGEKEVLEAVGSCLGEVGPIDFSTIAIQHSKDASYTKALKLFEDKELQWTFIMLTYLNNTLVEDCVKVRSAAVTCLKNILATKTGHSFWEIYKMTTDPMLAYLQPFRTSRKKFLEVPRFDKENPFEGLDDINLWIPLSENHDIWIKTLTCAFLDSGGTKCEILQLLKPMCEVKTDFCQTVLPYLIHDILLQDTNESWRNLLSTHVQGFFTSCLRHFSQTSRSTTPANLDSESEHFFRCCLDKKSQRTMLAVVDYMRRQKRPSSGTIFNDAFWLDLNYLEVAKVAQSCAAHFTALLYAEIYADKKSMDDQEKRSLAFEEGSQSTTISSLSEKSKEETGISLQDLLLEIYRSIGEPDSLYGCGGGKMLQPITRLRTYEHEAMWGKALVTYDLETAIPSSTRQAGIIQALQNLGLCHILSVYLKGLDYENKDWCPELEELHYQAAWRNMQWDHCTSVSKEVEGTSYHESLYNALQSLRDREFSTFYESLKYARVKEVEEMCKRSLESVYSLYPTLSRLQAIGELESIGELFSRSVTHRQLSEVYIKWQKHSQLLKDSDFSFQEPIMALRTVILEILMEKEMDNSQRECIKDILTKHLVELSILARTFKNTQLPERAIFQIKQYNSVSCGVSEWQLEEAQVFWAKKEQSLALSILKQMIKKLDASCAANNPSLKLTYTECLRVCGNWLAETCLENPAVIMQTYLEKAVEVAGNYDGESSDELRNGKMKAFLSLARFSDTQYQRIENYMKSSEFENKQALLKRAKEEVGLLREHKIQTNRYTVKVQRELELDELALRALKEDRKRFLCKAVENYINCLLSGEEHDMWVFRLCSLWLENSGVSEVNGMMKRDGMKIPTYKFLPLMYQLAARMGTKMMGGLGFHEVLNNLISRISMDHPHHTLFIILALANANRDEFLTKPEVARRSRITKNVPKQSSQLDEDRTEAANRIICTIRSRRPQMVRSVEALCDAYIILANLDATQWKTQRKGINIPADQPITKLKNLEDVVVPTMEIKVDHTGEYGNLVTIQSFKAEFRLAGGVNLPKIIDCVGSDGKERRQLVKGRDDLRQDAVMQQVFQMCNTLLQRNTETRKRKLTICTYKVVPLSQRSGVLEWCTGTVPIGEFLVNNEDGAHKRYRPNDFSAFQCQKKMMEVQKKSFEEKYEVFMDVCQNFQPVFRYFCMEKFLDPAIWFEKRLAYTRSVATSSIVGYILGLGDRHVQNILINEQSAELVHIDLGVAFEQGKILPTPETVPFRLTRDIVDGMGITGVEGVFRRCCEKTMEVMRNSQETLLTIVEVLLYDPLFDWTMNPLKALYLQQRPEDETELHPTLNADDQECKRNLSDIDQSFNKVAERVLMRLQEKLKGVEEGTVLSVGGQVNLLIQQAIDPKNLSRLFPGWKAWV

For `CN1C(=O)C2(CC2)c2c1cnc1ccc(-c3cnc(OCCCN4CCCC4)c(NS(=O)(=O)c4ccccc4)c3)cc21` [Example 58, N-(5-(3′-Methyl-2′-oxo-2′,3′-dihydrospiro[cyclopropane-1,1′-pyrrolo[2,3-c]quinolin]-8′-yl)-2-(3-(pyrrolidin-1-yl)propoxy)pyridin-3-yl)benzenesulfonamide], the IC50 (ATM; [1]) was < 0.5 nM and the IC50 (DNA-PK; ATP 20 μM) was < 0.5 nM.

In the case of `CN(C)CCCOc1ncc(-c2ccc3ncc4c(c3c2)C2(CC2)C(=O)N4C)cc1NS(=O)(=O)c1cnn(C)c1` [Example 91, N-(2-(3-(Dimethylamino)propoxy)-5-(3′-methyl-2′-oxo-2′,3′-dihydrospiro [cyclopropane-1,1′-pyrrolo[2,3-c]quinolin]-8′-yl)pyridin-3-yl)-1-methyl-1H-pyrazole-4-sulfonamide], the IC50 (ATM; [1]) is reported as 1 to 100 nM and the IC50 (DNA-PK; ATP 20 μM) is reported as < 0.5 nM.

`COc1ncc(-c2ccc3ncc4c(c3c2)C2(CC2)C(=O)N4C)cc1NS(=O)(=O)c1cccc(C(C)=O)c1` [Example 13, 3-Acetyl-N-(2-methoxy-5-(3′-methyl-2′-oxo-2′,3′-dihydrospiro [cyclopropane-1,1′-pyrrolo[2,3-c]quinolin]-8′-yl)pyridin-3-yl)benzenesulfonamide] was tested, and the IC50 (ATM; [1]) was 1 to 100 nM and the IC50 (DNA-PK; ATP 20 μM) was < 0.5 nM.

`CN(C)CCCOc1ncc(-c2ccc3ncc4c(c3c2)C2(CCC2)C(=O)N4C)cc1NS(=O)(=O)c1cccc(C(F)(F)F)c1` [Example 150, N-(2-(3-(Dimethylamino)propoxy)-5-(3′-methyl-2′-oxo-2′,3′-dihydrospiro[cyclobutane-1,1′-pyrrolo[2,3-c]quinolin]-8′-yl)pyridin-3-yl)-3-(trifluoromethyl)benzenesulfonamide] gave an IC50 (ATM; [1]) of 1 to 100 nM and an IC50 (DNA-PK; ATP 20 μM) of 1 to 100 nM.

In the case of `CN(C)CCCOc1ncc(-c2ccc3ncc4c(c3c2)C2(CC2)C(=O)N4C)cc1NS(=O)(=O)c1cccc(C#N)c1` [Example 96, 3-Cyano-N-(2-(3-(dimethylamino)propoxy)-5-(3′-methyl-2′-oxo-2′,3′-dihydrospiro[cyclopropane-1,1′-pyrrolo[2,3-c]quinolin]-8′-yl)pyridin-3-yl)benzenesulfonamide], the IC50 (ATM; [1]) is reported as 0.5 to 1 nM and the IC50 (DNA-PK; ATP 20 μM) is reported as < 0.5 nM.

`CN(C)CCCOc1ncc(-c2ccc3ncc4c(c3c2)C2(CC(F)C2)C(=O)N4C)cc1NS(C)(=O)=O` (centres unmarked) [Example 262, N-(2-(3-(Dimethylamino)propoxy)-5-(3-fluoro-3′-methyl-2′-oxo-2′,3′-dihydrospiro[cyclobutane-1,1′-pyrrolo[2,3-c]quinolin]-8′-yl)pyridin-3-yl)methanesulfonamide] showed an IC50 (ATM; [1]) of 1 to 100 nM and an IC50 (DNA-PK; ATP 20 μM) of 1 to 100 nM.

For `CN1C(=O)C2(CCC2)c2c1cnc1cc(F)c(-c3cnc(N4CC(N(C)C)C4)c(NS(=O)(=O)C4CC4)c3)cc21` [Example 319, N-(2-(3-(Dimethylamino)azetidin-1-yl)-5-(7′-fluoro-3′-methyl-2′-oxo-2′,3′-dihydrospiro[cyclobulane-1,1′-pyrrolo[2,3-c]quinolin]-8′-yl)pyridin-3-yl)cyclopropanesulfonamide hydrochloride], the IC50 (ATM; [1]) was 1 to 100 nM and the IC50 (DNA-PK; ATP 20 μM) was 1 to 100 nM.

Work on `CN(C)CC1CCN(c2ncc(-c3ccc4ncc5c(c4c3)C3(CC3)C(=O)N5C)cc2NS(=O)(=O)C2CC2)CC1` [Example 115] yielded an IC50 (ATM; [1]) of 0.5 to 1 nM and an IC50 (DNA-PK; ATP 20 μM) of 1 to 100 nM.

For `CN1C(=O)C2(CCC2)c2c1cnc1ccc(-c3cnc(N4CCC(N(C)C)CC4)c(NS(C)(=O)=O)c3)cc21` [Example 224, N-(2-(4-(Dimethylamino)piperidin-1-yl)-5-(3′-methyl-2′-oxo-2′,3′-dihydrospiro[cyclobutane-1,1′-pyrrolo[2,3-c]quinolin]-8′-yl)pyridin-3-yl)methanesulfonamide], the IC50 (ATM; [1]) was 1 to 100 nM and the IC50 (DNA-PK; ATP 20 μM) was < 0.5 nM.

`CN1C(=O)C2(CCC2)c2c1cnc1ccc(-c3cnc(N4CCC(N(C)C)C4)c(NS(C)(=O)=O)c3)cc21` (racemic) [Example 351, (rac)-N-(2-(3-(Dimethylamino)pyrrolidin-1-yl)-5-(3′-methyl-2′-oxo-2′,3′-dihydrospiro[cyclobutane-1,1′-pyrrolo[2,3-c]quinolin]-8′-yl)pyridin-3-yl)methanesulfonamide] gave an IC50 (ATM; [2]) of 1 to 100 nM and an IC50 (DNA-PK; 20 μM ATP) of 1 to 100 nM.

Compound `CC(C)NCCOc1ncc(-c2cc3c4c(cnc3cc2F)N(C)C(=O)C42CN(c3cccc(Cl)c3)C2)cc1NS(C)(=O)=O` [Example 524, N-(5-(1-(3-Chlorophenyl)-7′-fluoro-3′-methyl-2′-oxo-2′,3′-dihydrospiro[azetidine-3,1′-pyrrolo[2,3-c]quinolin]-8′-yl)-2-(2-(isopropylamino)ethoxy)pyridin-3-yl)methanesulfonamide] has an IC50 (ATM; [2]) of 1 to 100 nM and an IC50 (DNA-PK; 20 μM ATP) of 1 to 100 nM.

`CN1C(=O)C2(CC2)c2c1cnc1ccc(-c3cnc(OCCC4CCCN4C)c(NS(=O)(=O)C4CC4)c3)cc21` (centres unmarked) [Example 79, N-(5-(3-Methyl-2′-oxo-2′,3′-dihydrospiro[cyclopropane-1,1′-pyrrolo[2,3-c]quinolin]-8′-yl)-2-(2-(1-methylpyrrolidin-2-yl)ethoxy)pyridin-3-yl)cyclopropanesulfonamide] gave an IC50 (ATM; [1]) of 1 to 100 nM and an IC50 (DNA-PK; ATP 20 μM) of 1 to 100 nM.

In the case of `CC(C)NCCOc1ncc(-c2cc3c4c(cnc3cc2F)N(C)C(=O)C42CN(c3ccc(C(F)(F)F)cc3)C2)cc1NS(C)(=O)=O` [Example 536, N-(5-(7′-Fluoro-3′-methyl-2′-oxo-1-(4-(trifluoromethyl)phenyl)-2′,3′-dihydrospiro[azetidine-3,1′-pyrrolo[2,3-c]quinolin]-8′-yl)-2-(2-(isopropylamino)ethoxy)pyridin-3-yl)methanesulfonamide hydrochloride], the IC50 (ATM; [2]) is reported as 1 to 100 nM and the IC50 (DNA-PK; 20 μM ATP) is reported as 1 to 100 nM.

In the case of `CCN(CC)S(=O)(=O)Nc1cc(-c2ccc3ncc4c(c3c2)C2(CCC2)C(=O)N4C)cnc1OCCCN(C)C` [Example 183, 8′-{5-[(Diethylsulfanioyl)amino]-6-[3-(dimethylamino)propoxy]pyridine-3-yl}-3′-methyl-2′,3′-dihydrospiro [cyclobutane-1,1′-pyrrolo[2,3-c]quinoline]-2′-one], the IC50 (ATM; [1]) is reported as 1 to 100 nM and the IC50 (DNA-PK; ATP 20 μM) is reported as 1 to 100 nM.

For `CC(C)NCCOc1ncc(-c2cc3c(cc2F)ncc2c3[C@]3(C[C@H](N(C)c4ccccc4)C3)C(=O)N2C)cc1NS(C)(=O)=O` [Example 463, cis-N-(5-(7′-Fluoro-3′-methyl-3-(methyl(phenyl)amino)-2′-oxo-2′,3′-dihydrospiro[cyclobutane-1,1′-pyrrolo[2,3-c]quinolin]-8′-yl)-2-(2-(isopropylamino)ethoxy)pyridin-3-yl)methanesulfonamide], the IC50 (ATM; [2]) was 1 to 100 nM and the IC50 (DNA-PK; 20 μM ATP) was < 0.5 nM.

Compound `CN(C)CCCOc1ncc(-c2ccc3ncc4c(c3c2)C2(CC2)C(=O)N4C)cc1OCc1ccccc1` [Example 59, 8′-(5-(Benzyloxy)-6-(3-(dimethylamino)propoxy)pyridin-3-yl)-3methylspiro [cycloproane-1,1′-pyrrolo [2,3-c]quinolin]-2′(3′-)-one] has an IC50 (ATM; [1]) of 1 to 100 nM and an IC50 (DNA-PK; ATP 20 μM) of 1 to 100 nM.

Compound `CN1C(=O)C2(CCC2)c2c1cnc1ccc(-c3cnc(OCCCN4CCCCC4)c(NS(=O)(=O)c4ccccc4F)c3)cc21` [Example 195, 2-Fluoro-N-(5-(3′-methyl-2′-oxo-2′,3′-dihydrospiro[cyclobutane-1,1′-pyrrolo[2,3-c]quinolin]-8′-yl)-2-(3-(piperidin-1-yl)propoxy)pyridin-3-yl) benzenesulfonamide hydrochloride] has an IC50 (ATM; [1]) of 1 to 100 nM and an IC50 (DNA-PK; ATP 20 μM) of 0.5 to 1 nM.

In the case of `CN(C)c1ncc(-c2ccc3ncc4c(c3c2)C2(CCC2)C(=O)N4C)cc1NS(=O)(=O)c1ccccc1` [Example 10, N-(2-(Dimethylamino)-5-(3′-methyl-2′-oxo-2′,3′-dihydrospiro[cyclobutane-1,1′-pyrrolo[2,3-c]quinolin]-8′-yl)pyridin-3-yl)benzenesulfonamide], the IC50 (ATM; [1]) is reported as 1 to 100 nM and the IC50 (DNA-PK; ATP 20 μM) is reported as < 0.5 nM.

`CN1C(=O)C2(CCC2)c2c1cnc1ccc(-c3cnc(N4CCC(N5CCOCC5)CC4)c(NS(=O)(=O)C4CC4)c3)cc21` [Example 356, N-(5-(3′-Methyl-2′-oxo-2′,3′-dihydrospiro[cyclobutane-1,1′-pyrrolo[2,3-c]quinolin]-8′-yl)-2-(4-morpholinopiperidin-l-yl)pyridin-3-yl)cyclopropanesulfonamide hydrochloride] was tested, and the IC50 (ATM; [2]) was < 0.5 nM and the IC50 (DNA-PK; 20 μM ATP) was 0.5 to 1 nM.

`CC(C)NCCOc1ncc(-c2cc3c4c(cnc3cc2F)N(C)C(=O)C42CN(c3ccc4c(c3)OCCO4)C2)cc1NS(C)(=O)=O` [Example 545, N-(5-(1-(2,3-Dihydrobenzo[b][1,4]dioxin-6-yl)-7′-fluoro-3′-methyl-2′-oxo-2′,3′-dihydrospiro[azetidine-3,1′-pyrrolo[2,3-c]quinolin]-8′-yl)-2-(2-(isopropylamino)ethoxy)pyridin-3-yl)methanesulfonamide] showed an IC50 (ATM; [2]) of 1 to 100 nM and an IC50 (DNA-PK; 20 μM ATP) of 0.5 to 1 nM.

With `CN(C)CCCOc1ncc(-c2ccc3ncc4c(c3c2)C2(CCC2)C(=O)N4C)cc1NS(=O)(=O)c1cncc(C(F)(F)F)c1` [Example 141, N-(2-(3-(Dimethylamino)propoxy)-5-(3′-methyl-2′-oxo-2′,3′-dihydrospiro[cyclobulane-1,1′-pyrrolo[2,3-c]quinolin]-8′-yl)pyridin-3-yl)-5-(trifluoromethyl)pyridine-3-sulfonamide hydrochloride] the IC50 (ATM; [1]) was 1 to 100 nM and the IC50 (DNA-PK; ATP 20 μM) was > 100 nM.

For `Cc1cc(S(=O)(=O)Nc2cc(-c3ccc4ncc5c(c4c3)C3(CCC3)C(=O)N5C)cnc2N2CCC(N(C)C)CC2)sn1` [Example 233, N-(2-(4-(Dimethylamino)piperidin-1-yl)-5-(3′-methyl-2′-oxo-2′,3′-dihydrospiro[cyclobutane-1,1′-pyrrolo[2,3-c]quinolin]-8′-yl)pyridin-3-yl)-3-methylisothiazole-5-sulfonamide], the IC50 (ATM; [1]) was 1 to 100 nM and the IC50 (DNA-PK; ATP 20 μM) was 0.5 to 1 nM.
